One molecule from US11992010B2, “Use of 4-(phenylethynyl) benzoic acid” (China Jiliang University, priority 2022, dated 2024) can be followed below.

For one assay, the system named is Arabidopsis seeds. Kind of assay: Seed germination experiment on Arabidopsis. The format is in vivo, Arabidopsis thaliana L. Columbia, Col-0 ecotype. The settings on record: for Germination potential/% (48 h): control 45.31 ± 6.63; for Ultimate germination rate/%: control 88.32 ± 1.15. The method, then:
(§1) The seeds of Arabidopsis wild type (Arabidopsis thaliana L. Columbia, Col-0 ecotype) were provided by the lab of plant quality & safety biology in China Jiliang university. The commercial tomato seeds (Solanum lycopersicum CV. Zhefen 202) were provided by Zhejiang Academy of Agricultural Sciences.
(§2) The 4-(Phenylethynyl) benzoic acid solutions were prepared as follows: 22.9 mg 4-(Phenylethynyl) benzoic acid was weighted and dissolved in 1 mL DMSO to make the 100 mM 4-(Phenylethynyl) benzoic acid mother solution. The working solutions applied were prepared by diluting the 4-(phenylethynyl) benzoic acid mother solution with water. For example, the 4-(Phenylethynyl) benzoic acid treatment solutions at the concentrations of 1 μM, 10 μM, and 50 μM were prepared by diluting 1 μL of the 100 mM 4-(phenylethynyl) benzoic acid mother solution to 100 mL, 10 mL, or 2 mL with water. DMSO was supplemented to a final concentration of 0.05% (V:V).
(§3) 0.05% DMSO water solution then used as a control solution.
Arabidopsis seeds were soaked in 4-(Phenylethynyl) benzoic acid treatment solutions at the concentrations of 1 μM, 10 μM, and 50 μM for 3 days under dark at 4° C., respectively. Seeds soaked in the 0.05% DMSO water solution were used as control. On the fourth day, Seeds were transformed to light at 25° C. in 2-cm-diameter Petri dishes with two layers of filter papers. Different concentrations of 4-(Phenylethynyl) benzoic acid treatment solutions were added as germination liquids. 0.05% DMSO water solution was used as control. 30-50 seeds were placed on the moist filter paper in a Petri dish. There were three replicates for each treatment. After germination for 30 h, 42 h, 48 h, and 66 h in a growth chamber (25° C.), the germination rate (the proportion of the total number of the seeds germinated corresponding to each time point after the start of the germination experiment to the total number of seeds to be tested) was calculated, respectively. The germination rate at 48 h was adopted as the germination potential (the proportion of the total number of the seeds germinated corresponding to 48 h after the start of the germination experiment to the total number of seeds to be tested).

The next assay concerns tomato seeds. The assay can be described thus: Seed germination experiment on tomato. It counts as in vivo, Solanum lycopersicum CV. Zhefen 202. The conditions noted are these: 50 μM. The method, then:
as §1, §2, §3
For tomato, 80 seeds were sowed on two layers of filter papers in a 6-cm-diameter Petri dish with germination liquids. 4-(Phenylethynyl) benzoic acid treatment solution at the concentration of 50 μM and 0.05% DMSO water solution (Control) were used as the germination liquids. There were three replicates for each treatment. After germination for 24 h, 36 h, 48 h, 60 h, 72 h, 84 h in a growth chamber (25° C.), the germination rate (the proportion of the total number of the seeds germinated corresponding to each time point after the start of the germination experiment to the total number of seeds to be tested) was calculated, respectively. The germination rate at 48 h was adopted as the germination potential (the proportion of the total number of the seeds germinated corresponding to 48 h after the start of the germination experiment to the total number of seeds to be tested).

The test system of the next assay is rice radicle. Kind of assay: Rice radicle elongation. The format is in vivo, Oryza sativa L. Datian Nip. The method, then:
Rice cultivar (Oryza sativa L. Datian Nip) was provided by Zhejiang Academy of Agricultural Sciences.
Every 1 μL 4-(Phenylethynyl) benzoic acid mother solution in Example 1 was diluted with water to 2 mL or 500 μL to prepare 50 μM or 200 μM 4-(Phenylethynyl) benzoic acid treatment solutions. 0.05% DMSO water solution was used as the control solution for 50 μM 4-(Phenylethynyl) benzoic acid treatment solution and 0.2% DMSO water solution was used as the control solution for 200 μM 4-(Phenylethynyl) benzoic acid treatment solution respectively.
A volume of 10 ml 4-(Phenylethynyl) benzoic acid treatment solutions at various concentrations were added to 9-cm-diameter Petri dishes with two layers of filter papers. 100 seeds were placed on the moist filter paper in a Petri dish. 0.05% DMSO water solution was used as control for 50 μM 4-(Phenylethynyl) benzoic acid treatment solution. 0.2% DMSO water solution was used as control for 200 μM 4-(Phenylethynyl) benzoic acid treatment solution. There were three replicates for each treatment. Seeds were germinated under light at 28° C. The seeds that germinated between the second and the third day after imbibition were chosen and their radicle length were measured on the fifth day.

In a further assay the test system is stomata of tomato leaves. Kind of assay: Stomata closure in abaxial epidermal strips of tomato. It counts as cell-based, Solanum lycopersicum CV. Zhefen 202. The conditions noted are these: 50 μM, 3 hours, compared to the control. The method, then:
The commercial tomato seeds (Solanum lycopersicum CV. Zhefen 202) were provided by Zhejiang Academy of Agricultural Sciences.
The concentration of 4-(Phenylethynyl) benzoic acid used in this example was 50 μM. Every 1 μL of the 100 mM 4-(Phenylethynyl) benzoic acid mother solution in Example 1 was diluted to 2 mL with MES-KCl buffer (10 mM MES, 50 mM KCl, pH 6.15). 0.5% Tween-80 (V:V) was added to increase the solubility and stability of 4-(Phenylethynyl) benzoic acid. The solution was mixed evenly by stirring efficiently and it was ensured that no 4-(phenylethynyl) benzoic acid was precipitated, and finally 50 μM 4-(phenylethynyl) benzoic acid was prepared.
The control solution was the MES-KCl buffer containing 0.05% DMSO and 0.5% Tween-80.
Abaxial epidermal strips of tomato were firstly peeled from washed leaves, then immersed in MES-KCl buffer (10 mM MES, 50 mM KCl, pH 6.15) under light at 28° C. to induce stomatal opening. After 2 hours, abaxial epidermal strips of tomato were treated with the control solution (MES-KCl buffer with 0.05% DMSO and 0.5% Tween-80) and 50 μM 4-(Phenylethynyl) benzoic acid treatment solution (MES-KCl buffer with 50 μM 4-(Phenylethynyl) benzoic acid, 0.05% DMSO and 0.5% Tween-80) for 3 hours, respectively. […] Widths and lengths of stomata were measured and the aperture ratios (width:length) were calculated. […]

`O=C(O)c1ccc(C#Cc2ccccc2)cc1` [4-(Phenylethynyl) benzoic acid]: the “germination of Arabidopsis seeds (in words)” value in the assay on Arabidopsis seeds (10 μM and 50 μM, 50 μM exhibited a stronger effect) was “significantly slowed down the germination”. Also, in the assay with Arabidopsis seeds (Arabidopsis, 1 μM), the “Germination potential/% (48 h)” value worked out at 37.50 ± 7.50 a % and the Ultimate germination rate/% is 92.33 ± 0.29 a %. In addition, in the assay on Arabidopsis seeds (Arabidopsis, 10 μM), the “decrease in germination potential” value is given as above 20%, the “Germination potential/% (48 h)” value was 14.53 ± 6.40 b % and the Ultimate germination rate/% was 85.24 ± 7.41 a %. In addition, in the assay with Arabidopsis seeds (Arabidopsis, 50 μM), the “germination rate reduction ultimately” value is given as above 80% and the Ultimate germination rate/% is recorded as 2.30 ± 3.98 b %. In addition, the “tomato seeds germination (in words)” value in the assay with tomato seeds (compared to the control) is “significantly inhibited the germination process and reduced the germination rate”. Further, the “Germination potential/% (48 h)” value with tomato seeds (Tomato, 48 h, control 20.83 ± 1.90) was 0.00 ± 0.00 b %. The molecule also came in with a Ultimate germination rate/% in the assay with tomato seeds (Tomato, control 88.75 ± 6.25) of 10.41 ± 2.88 b %. In addition, the “rice radicle elongation (in words)” value with rice radicle (50 μM and 200 μM, relative to their controls, 200 μM significantly better than 50 μM) is given as “significantly inhibited rice radicle elongation”. In addition, the activity at 50 µM in the assay with rice radicle (Oryza sativa, rice, 50 μM, control 0.05% DMSO, read-out: radicle length, % of control treatment) turned out to be 48.2%. The activity at 200 µM in the assay with rice radicle (Oryza sativa, rice, 200 μM, control 0.2% DMSO, read-out: radicle length, % of control treatment) was 20.3%. In the assay with stomata of tomato leaves, the “aperture ratio (width:length) (in words)” value is “significantly reduced” and the “stomata aperture (in words)” value is “significantly reduced”.
